Reference: US12378227B2, “Therapeutic cocrystals of 3-{[5-(azetidine-1-ylcarbonyl)pyrazin-2-yl]oxy}-5-{[(1S)-1-methyl-2-(methyloxy)ethyl]oxy)-N-(5-methylpyrazin-2-yl)benzamide” (CONDUIT UK MANAGEMENT LTD, priority 2021, dated 2025)

What was measured:
[1] = Dry milling in ball mill, assessed by eye and by XRPD; format: physicochemical; conditions: dry milled, Retsch MM400 ball mill, 2×15 min at 30 Hz, stainless-steel jar
From the text: In order to prepare cocrystal samples of similar particle size for a dissolution study and to assess the impact of milling on the crystallinity of the cocrystals, Cocrystal 1, Cocrystal 2, Cocrystal 3, Cocrystal 4 and Cocrystal 5a were dry milled using a ball mill. WO 2012/007758 discloses that to achieve satisfactory dissolution of the benzamide compound particle size reduction was required. […] Thus, a solid form of the benzamide compound that could undergo particle size reduction with an efficient recovery rate without the need to use a co-milling excipient is beneficial. The milled cocrystals, Cocrystal 1, Cocrystal 2, Cocrystal 3, Cocrystal 4 and Cocrystal 5a, were therefore assessed by eye for any potential agglomeration issues or excessive sticking to the walls of the milling vessel that might indicate potential adhesion/cohesion issues such as those of the pure benzamide compound.
200 mg each of Cocrystal 1, Cocrystal 2, Cocrystal 3, Cocrystal 4 and Cocrystal 5a were separately placed in a 25 ml stainless-steel milling jar containing a 1 cm stainless steel ball bearing. Each benzamide cocrystal of the invention was dry milled in a Retsch MM400 ball mill for 2×15 min at 30 Hz. The product was assessed by eye and by XRPD.

[2] = Solid-state stability study, accelerated storage 40° C./75% RH, 3 months; format: physicochemical; conditions: sealed container
Experimental: A study was carried out to examine the physical stability of the benzamide cocrystals of the invention with respect to solid form conversion or signs of decomposition over time under both ambient and accelerated conditions. 50 mg each of Cocrystal 1, Cocrystal 2, Cocrystal 4, and Cocrystal 5A were separately placed in a sealed container at 40° C. and 75% relative humidity and stored under these conditions for 3 months. After this time all samples remained unchanged in appearance with no signs of deliquescence and no signs of any colour change.

[3] = Solid-state stability study, ambient conditions, 12 months; format: physicochemical; conditions: clear glass vial
Experimental: A second stability study was carried out where 50 mg each of Cocrystal 1, Cocrystal 2, Cocrystal 3, Cocrystal 4, and Cocrystal 5A were separately placed in a clear glass vial which was then stored under ambient conditions for 12 months. After this time all the cocrystals remained as white solids with no signs of colour change.

[4] = pure benzamide compound, as disclosed in WO 2012/007758; cited from earlier work
[5] = Polymorphism study (preparation methods 1 and 2 in different solvents); format: physicochemical; conditions: methods 1 and 2 using 2-propanol, ethyl acetate, acetonitrile, methyl ethyl ketone and water
Experimental: (§1) As AZD1656 is known to exist in six different crystalline forms an investigation was carried out to examine whether Cocrystal 1 could also exist in multiple polymorphic forms. Preparation methods 1 and 2 described above were carried out using 2-propanol, ethyl acetate, acetonitrile, methyl ethyl ketone and water.
as §1, with “Cocrystal 2” for “Cocrystal 1”

## COC[C@H](C)Oc1cc(Oc2cnc(C(=O)N3CCC3)cn2)cc(C(=O)Nc2cnc(C)cn2)c1.O.O=C(O)C(O)C(O)C(=O)O [Cocrystal 4, 1:1 benzamide L-tartaric acid hydrate]
[1]
  Powder flow / agglomeration after milling (by eye): free-flowing powder with no obvious signs of agglomeration
  Recoverability from milling chamber / adhesion to walls (by eye): easily recoverable from the milling chamber with no excessive adhesion to the walls of the milling jar
  Signs of loss of crystallinity due to milling (XRPD): None
[2]
  Appearance: No change
  XRPD analysis (form change): No change
[3]
  Appearance: No change
  XRPD analysis (form change): No change

## COC[C@H](C)Oc1cc(Oc2cnc(C(=O)N3CCC3)cn2)cc(C(=O)Nc2cnc(C)cn2)c1 [benzamide compound, 3-{[5-(azetidine-1-ylcarbonyl)pyrazin-2-yl]oxy}-5-{[(1S)-1-methyl-2-(methyloxy)ethyl]oxy}-N-(5-methylpyrazin-2-yl)benzamide]
[4]
  Adhesion on dry milling: excessive adhesion to the stainless-steel walls of the milling vessel resulting in low recovery yields

## COC[C@H](C)Oc1cc(Oc2cnc(C(=O)N3CCC3)cn2)cc(C(=O)Nc2cnc(C)cn2)c1.O=C(O)/C=C/C(=O)O [Cocrystal 1, 1:1 benzamide fumaric acid]
[5]
  Polymorphic forms obtained: single polymorphic form
[1]
  Powder flow / agglomeration after milling (by eye): free-flowing powder with no obvious signs of agglomeration
  Recoverability from milling chamber / adhesion to walls (by eye): easily recoverable from the milling chamber with no excessive adhesion to the walls of the milling jar
  Signs of loss of crystallinity due to milling (XRPD): None
[2]
  Appearance: No change
  XRPD analysis (form change): No change
[3]
  Appearance: No change
  XRPD analysis (form change): No change

## COC[C@H](C)Oc1cc(Oc2cnc(C(=O)N3CCC3)cn2)cc(C(=O)Nc2cnc(C)cn2)c1.O=C(O)/C=C\C(=O)O [Cocrystal 2, 1:1 benzamide maleic acid]
[5]
  Polymorphic forms obtained: single polymorphic form
[1]
  Powder flow / agglomeration after milling (by eye): free-flowing powder with no obvious signs of agglomeration
  Recoverability from milling chamber / adhesion to walls (by eye): easily recoverable from the milling chamber with no excessive adhesion to the walls of the milling jar
  Signs of loss of crystallinity due to milling (XRPD): None
[2]
  Appearance: No change
  XRPD analysis (form change): No change
[3]
  Appearance: No change
  XRPD analysis (form change): No change

## COC[C@H](C)Oc1cc(Oc2cnc(C(=O)N3CCC3)cn2)cc(C(=O)Nc2cnc(C)cn2)c1.O=C(O)CC(=O)O [Cocrystal 3, 1:1 benzamide malonic acid]
[1]
  Powder flow / agglomeration after milling (by eye): free-flowing powder with no obvious signs of agglomeration
  Recoverability from milling chamber / adhesion to walls (by eye): easily recoverable from the milling chamber with no excessive adhesion to the walls of the milling jar
  Signs of loss of crystallinity due to milling (XRPD): None
[3]
  Appearance: No change
  XRPD analysis (form change): No change

## COC[C@H](C)Oc1cc(Oc2cnc(C(=O)N3CCC3)cn2)cc(C(=O)Nc2cnc(C)cn2)c1.O=C(O)c1cc(O)ccc1O [Cocrystal 5A, 1:1 benzamide gentisic acid form 1]
[1]
  Powder flow / agglomeration after milling (by eye): free-flowing powder with no obvious signs of agglomeration
  Recoverability from milling chamber / adhesion to walls (by eye): easily recoverable from the milling chamber with no excessive adhesion to the walls of the milling jar
  Signs of loss of crystallinity due to milling (XRPD): None
[2]
  Appearance: No change
  XRPD analysis (form change): No change
[3]
  Appearance: No change
  XRPD analysis (form change): No change
